Experimental data published in EPA's ToxValDB 9.5 (doi:10.2903/j.efsa.2010.1828).

What was measured:
Aphidius rhopalosiphi = assay: LR50; higher = less toxic; conditions: not reported; mortality
Tagia sp. = conditions: acute; duration: 14 days; mortality
Macromiidae = conditions: acute; duration: 72 hours; growth
Bird = conditions: short-term; oral; feed; mortality
Coturnix japonica = conditions: reproduction developmental; duration: 8 weeks; reproduction
Colinus virginianus = conditions: acute; oral; mortality
Bibionidae = conditions: chronic/long-term; duration: 26 days; other
Daphnia magna = conditions: chronic/long-term; duration: 21 days; growth
Folsomia candida = conditions: chronic/long-term; duration: 28 days
Apis mellifera = conditions: acute; duration: 48 hours; oral; unspecified; mortality

O=C(Nc1ccccc1)N(Cc1ccc(Cl)cc1)C1CCCC1 [Pencycuron]
LR50 (Aphidius rhopalosiphi): 685 g/ha
LC50 (Tagia sp.): > 10000 mg/kg
NOEC (Macromiidae): > 0.3 mg/L
LC50 (Bird): > 1750 mg/kg-day
LD50 (Rattus norvegicus; acute, oral, mortality): > 5000 mg/kg
NOAEL (Rattus norvegicus; chronic, duration: 2 years): 18 mg/kg-day
NOAEL (Rattus norvegicus; reproduction developmental, body weight): 32 mg/kg-day
NOEL (Coturnix japonica): ≥ 122 mg/kg-day
LD50 (Colinus virginianus): > 2000 mg/kg
NOEC (Bibionidae): ≥ 0.3 mg/L
NOEC (Daphnia magna): 0.0496 mg/L
LC50 (Oncorhynchus mykiss; acute, duration: 96 hours, mortality): > 0.3 µg/mL
NOEC (Oncorhynchus mykiss; chronic/long-term, duration: 94 days, growth): 0.0832 mg/L
NOEC (Folsomia candida): 60 mg/kg
LD50 (Apis mellifera): > 98.5 µg/piece
